Measured values from US20090012488A1, “Super-Absorber Having Improved Smell-Inhibition” (BASF SE, priority 2006, published 2009).

Target: T1, urease (from jack beans) (Canavalia ensiformis, UniProt P07374)
T1 construct: solid urease (from jack beans); lyophilized 5 U/mg for urea assay in serum; purchased Merck article No. 4194753; host or cells: jack beans (natural source)
Assay type: biochemical
Conditions: comparison of inventive with comparative examples, table 1
Experimental: To evaluate the odor-inhibiting effect of the compositions of the present invention, the inhibition of the activity of urease in the formation of ammonia from urea is determined. The determination is carried out at room temperature. 2 g of the substance to be tested (superabsorbent, composition according to the present invention) are weighed into a 100 ml Erlenmeyer flask. 30 mg of solid urease (from jack beans; lyophilized 5 U/mg for urea assay in serum; Merck, article No. 4194753) is weighed into a 100 ml glass beaker. 50 ml of 0.9% sodium chloride solution in urea (8.56 g/L) are added to the urease. The entire contents of the glass beaker are poured swiftly onto the sample in the Erlenmeyer flask, a diffusion tubelet (Dräger Röhrchen, ammonia 20/a-D, 20-1500 ppm*h, order No. 8101301) is as intended broken open, inserted into a rubber stopper which fits the Erlenmeyer flask and the Erlenmeyer flask is sealed with the stopper such that the open end of the diffusion tubelet points inward. […] The measurement is in each case carried out as a duplicate determination, and the result reported is the average between the two readings which has been rounded to the nearest whole number.

T1 sequence (P07374 whole entry, looked up): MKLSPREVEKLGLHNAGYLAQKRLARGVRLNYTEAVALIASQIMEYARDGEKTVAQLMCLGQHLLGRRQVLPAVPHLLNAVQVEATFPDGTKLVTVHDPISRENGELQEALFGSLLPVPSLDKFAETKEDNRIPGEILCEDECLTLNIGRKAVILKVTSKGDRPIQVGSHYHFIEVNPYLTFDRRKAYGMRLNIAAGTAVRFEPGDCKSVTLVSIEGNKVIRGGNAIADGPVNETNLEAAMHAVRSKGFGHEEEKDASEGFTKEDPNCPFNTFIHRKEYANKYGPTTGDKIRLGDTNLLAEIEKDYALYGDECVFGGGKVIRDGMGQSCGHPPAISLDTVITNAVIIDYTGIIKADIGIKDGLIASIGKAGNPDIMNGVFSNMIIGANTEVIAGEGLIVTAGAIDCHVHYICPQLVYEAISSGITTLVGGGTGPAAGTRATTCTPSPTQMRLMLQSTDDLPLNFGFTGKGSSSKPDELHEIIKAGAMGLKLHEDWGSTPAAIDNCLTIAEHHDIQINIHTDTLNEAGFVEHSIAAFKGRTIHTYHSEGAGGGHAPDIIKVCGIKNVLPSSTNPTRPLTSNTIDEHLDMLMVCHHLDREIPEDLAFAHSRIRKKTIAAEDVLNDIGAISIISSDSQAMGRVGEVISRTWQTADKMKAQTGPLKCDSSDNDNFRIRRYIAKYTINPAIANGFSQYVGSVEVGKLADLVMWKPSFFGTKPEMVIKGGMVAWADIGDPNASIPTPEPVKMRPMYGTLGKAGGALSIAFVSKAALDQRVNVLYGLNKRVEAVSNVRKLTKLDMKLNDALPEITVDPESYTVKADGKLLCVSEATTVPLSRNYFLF

In the case of `O=CC(=O)O` [glyoxylic acid], the “odor-inhibiting effect (in words)” value is reported as “demonstrates an odor-inhibiting effect”.
